According to patent US10525060B2, “HCK as a therapeutic target in MYD88 mutated diseases” (Dana-Farber Cancer Institute, Inc., priority 2016, dated 2020):
Read-outs that look alike come from different tables or passages of the source.

Experiments:
SRC = biological target: T1, SRC (Homo sapiens, UniProt P12931); assay: Kinase active-site inhibition assay (ATP-biotin probe, western blot) in BCWM.1 cells; format: binding; conditions: BCWM.1 WM cells, pre-treated 1 hour, various concentrations
T1 construct: endogenous in cells; host or cells: BCWM.1
Protocol: (§1) Cells then washed with PBS twice, and lysed with co-IP buffer (Invitrogen, Grand Island N.Y.). Two mg of protein from lysed cells was then incubated with […] of Pierce Streptavidin Magnetic Beads (Thermo Fisher Scientific, Cambridge Mass.) at 4° C. for 1 hour, then washed with TBST (0.1% Tween-20) thrice, and proteins eluted with SDS-PAGE sample buffer. […] Cells then were lysed and kinases were pulled down with ATP-biotin using Pierce™ Kinase Enrichment Kit (Thermo Fisher Scientific) per manufacturer's instructions. Kinases were eluted with SDS-PAGE sample buffer and detected by western blot.

LYN [1] = biological target: T2, LYN (Homo sapiens, UniProt P07948); assay: as above; format: binding; parameters: endogenous in cells; host or cells: BCWM.1; conditions: BCWM.1 WM cells, pre-treated 1 hour, various concentrations
Protocol: as §1

CD5+CD19+ PBMC cells = assay: Apoptosis ex vivo in cells from a CLL patient resistant to ibrutinib; format: cell-based, human; conditions: DMSO 11.9%
HCK [2] = biological target: T3, HCK (Homo sapiens, UniProt P08631); assay: Kinase active-site inhibition assay (ATP-biotin probe, western blot) in BCWM.1 cells; format: binding; parameters: endogenous in cells; host or cells: BCWM.1 (A3); BCWM.1, MWCL-1, TMD-8 (A8); WM and ABC DLBCL lines and primary WM cells (A12); conditions: BCWM.1 WM cells, pre-treated 1 hour, various concentrations
Protocol: as §1

CD19+ bone marrow cells = assay: Apoptosis by flow cytometry in cells from a WM patient resistant to ibrutinib; format: cell-based, human
Protocol: (§2) Apoptosis analysis was performed using Annexin V/Propidium iodide staining with the Apoptosis Detection Kit I (BD Pharmingen, San Jose Calif.). Cells (1×10^6/well) were treated in 24 well plates for 18 hours with inhibitors or corresponding controls. A minimum of 10,000 events were acquired using a BD™ FACSCanto II flow cytometer, and analyzed with BD FACS DIVA Software. For WM patient cells, BMMC (2×10^6/well) were treated with inhibitors, and CD19-APC-cy7 antibody (BD Pharmingen) was used with Annexin V antibody to analyze WM cell apoptosis. AlamarBlue® cell viability assay (Life Technologies, Carlsbad Calif.) was used to assess cell death following inducible HCK knockdown. For these experiments, transduced cells (1×10^5/ml) were cultured with tetracycline, and aliquoted every other day on days 1-11. AlamarBlue® solution ( 1/10 total volume) was added to cells and incubated for 2 hours. Aliquoted plates were read in a SpectraMax M3 plate reader (Molecular Devices, Sunnyvale, Calif.). Relative cell survival was calculated as percentage of fluorescence relative to scrambled control. The CellTiter-Glo® Luminescent cell viability assay (Promega, Madison Wis.) was used to assess the dose-response of inhibitors. […] Luminescent measurement was performed using the 2104 Envision® Multilabel Reader (PerkinElmer Inc.).

[3] = tested on: MYD88^WT cell lines or healthy donor B-cells; assay: Apoptosis by propidium iodide and Annexin V staining; format: cell-based; conditions: data not shown
Protocol: (§3) Apoptosis analysis was performed using Annexin V/Propidium iodide staining with the Apoptosis Detection Kit I (BD Pharmingen, San Jose Calif.). Cells (1×10^6/well) were treated in 24 well plates for 18 hours with inhibitors or corresponding controls. A minimum of 10,000 events were acquired using a BD™ FACSCanto II flow cytometer, and analyzed with BD FACS DIVA Software. For WM patient cells, BMMC (2×10^6/well) were treated with inhibitors, and CD19-APC-cy7 antibody (BD Pharmingen) was used with Annexin V antibody to analyze WM cell apoptosis. AlamarBlue® cell viability assay (Life Technologies, Carlsbad Calif.) was used to assess cell death following inducible HCK knockdown. For these experiments, transduced cells (1×10^5/ml) were cultured with tetracycline, and aliquoted every other day on days 1-11. AlamarBlue® solution ( 1/10 total volume) was added to cells and incubated for 2 hours. Aliquoted plates were read in a SpectraMax M3 plate reader (Molecular Devices, Sunnyvale, Calif.). Relative cell survival was calculated as percentage of fluorescence relative to scrambled control. The CellTiter-Glo® Luminescent cell viability assay (Promega, Madison Wis.) was used to assess the dose-response of inhibitors. Cells were seeded into 384 well plates with the EL406 Combination Washer Dispenser (BioTek Instruments, Inc.) and inhibitors injected into the cells culture media with the JANUS Automated Workstation (PerkinElmer Inc., Waltham Mass.). Cells were treated with serial diluted inhibitors […] for 72 hours at 37° C. Luminescent measurement was performed using the 2104 Envision® Multilabel Reader (PerkinElmer Inc.).
(§4) We also evaluated tumor cell viability by the CellTiter-Glo® Luminescent cell viability assay, and apoptosis by propidium iodide and Annexin V staining to determine if HCK inhibition contributed to WM cell death.

[4] = tested on: mutated MYD88 cell lines and primary WM cells; assay: as above; format: cell-based; conditions: 0.5 μM, 18 hours
Protocol: as §3, §4

[5] = tested on: mutated MYD88 expressing WM and ABC DLBCL cell lines; assay: CellTiter-Glo Luminescent cell viability assay; format: cell-based
Protocol: as §2, with “AlamarBlue® solution ( 1/10 total volume) was added to cells and incubated for 2 hours.” left out, “control.” for “control. The CellTiter-Glo® Luminescent cell viability assay (Promega, Madison Wis.) was used to assess the dose-response of inhibitors.”
as §4

HCK (pTyr^411) = biological target: T4, HCK (pTyr^411) (Homo sapiens, UniProt P08631); assay: PhosFlow analysis of HCK Tyr411 phosphorylation; format: cell-based; conditions: MYD88 L265P WM and ABC DLBCL cell lines and primary WM LPC, 0.5 μM, 30 minutes
T4 construct: endogenous in cells; host or cells: BCWM.1 (A3); BCWM.1, MWCL-1, TMD-8 (A8); WM and ABC DLBCL lines and primary WM cells (A12)
Protocol: PhosFlow analysis was performed to delineate HCK phosphorylation. Cells were fixed with BD PhosFlow Fix Buffer I at 37° C. for 10 min. Cells were then centrifuged (300×g for 5 min) and washed twice with PhosFlow Perm/Wash Buffer I (BD Pharmingen). […] Following staining, cells were incubated in the dark for 30 min at room temperature, then washed thrice with BD PhosFlow Perm/Wash Buffer I, followed by anti-Rabbit IgG DyLight®-649 secondary antibody (Abcam), and incubated for an additional 20 min. Cells were then washed twice with BD PhosFlow Perm/Wash Buffer I and flow analysis performed using a BD™ FACSCanto II Flow Cytometer.
as §4

LYN [6] = biological target: T2, LYN; assay: KiNativ profiling in WM cell lines; format: binding; parameters: endogenous in cells; host or cells: BCWM.1 and MWCL-1 WM cell lines; conditions: for inhibition at 1 µM: read-out: KiNativ profiling, LYN inhibition (labeling site Lys1); for KiNativ profiling, LYN inhibition (labeling site Lys1): 1 μM
FYN, SRC, YES = assay: KiNativ profiling in WM cell lines; format: binding, Homo sapiens; conditions: 1 μM
BTK = biological target: T5, BTK (Homo sapiens, UniProt Q06187); assay: Kinase active-site inhibition assay (ATP-biotin probe, western blot) in BCWM.1 cells; format: binding; conditions: BCWM.1 WM cells, pre-treated 1 hour, various concentrations
T5 construct: endogenous in cells; host or cells: BCWM.1 (A4); BCWM.1, MWCL-1, TMD-8 (A7)
Protocol: as §1

HCK [7] = biological target: T3, HCK; conditions: read-out: IC50 kinase activity of HCK; cited from earlier work
BCWM.1 WM cells = assay: Dose dependent tumor cell survival of BCWM.1 cells transduced with BTK or HCK vectors; format: cell-based
Source text: as §4

TMD-8 ABC DLBCL cells = assay: Cell viability of TMD-8 cells transfected with BTK vectors; format: cell-based; conditions: FIG. 8B

| Compound | blocking of ATP binding to SRC (SRC) | blocking of ATP binding to LYN (LYN [1]) | blocking of ATP binding to HCK (HCK [2]) | apoptotic activity [3] | apoptotic changes [4] | change in HCK Tyr411 phosphorylation (HCK (pTyr^411)) | inhibition at 1 µM (LYN [6]; BCWM.1 cells) | inhibition at 1 µM (LYN [6]; MWCL-1 cells) | KiNativ profiling, FYN, SRC, YES (labeling site Activation Loop) (FYN, SRC, YES; BCWM.1 cells) | KiNativ profiling, FYN, SRC, YES (labeling site Activation Loop) (FYN, SRC, YES; MWCL-1 cells) | also measured |
| --- | --- | --- | --- | --- | --- | --- | --- | --- | --- | --- | --- |
| CN1CCN([C@H]2CC[C@H](n3cc(-c4ccc(Oc5ccccc5)cc4)c4c(N)ncnc43)CC2)CC1 [A419259] | blocked ATP binding to the SRC family members SRC and LYN | blocked ATP binding to the SRC family members SRC and LYN | blocked ATP binding to HCK in a dose-dependent manner | little or no apoptotic activity | Increased apoptotic changes | reduced HCK Tyr^411 phosphorylation | > 99% | > 99% | >99 | 98.1 | apoptotic cells (CD5+CD19+ PBMC cells; 0.1 μM): 18.4%; apoptotic cells (CD5+CD19+ PBMC cells; 0.5 μM): 25.6%; apoptotic cells (CD19+ bone marrow cells; 0.1 μM): 20.8%; apoptotic cells (CD19+ bone marrow cells; 0.5 μM): 24.6%; dose-dependent viability ([5]; 72 hours, more pronounced in mutated MYD88 than MYD88 WT cells): Decreased dose-dependent viability |
| C=CC(=O)Nc1cccc(Nc2nc(Nc3ccc(OCCOC)cc3)ncc2F)c1 [CC-292] | did not block ATP binding to either SRC or LYN | did not block ATP binding to either SRC or LYN | not CC-292 blocked ATP binding to HCK | little or no apoptotic activity | little or no impact on apoptosis | little or no impact on HCK Tyr^411 phosphorylation | – | – | 10.5 | −0.4 | blocking of ATP binding to BTK (BTK): blocked ATP binding to BTK; IC50 (HCK [7]): 14.6 µM; potency for tumor cell killing in BTK^C481S expressing cells versus wild-type BTK or control vector (BCWM.1 WM cells; BCWM.1 WM cells, FIG. 8A): reduced potency; change in tumor cell killing with HCK^T333M or wild-type HCK (BCWM.1 WM cells; BCWM.1 transduced to express HCK^T333M or wild-type HCK): No substantial change in tumor cell killing; higher EC50 in viability assay ([5]; mutated MYD88 cell lines except OCI-Ly3, 72 hours): > 1 log-fold; KiNativ profiling, LYN inhibition (labeling site Lys1) (LYN [6]; BCWM.1 cells): 15.7; KiNativ profiling, LYN inhibition (labeling site Lys1) (LYN [6]; MWCL-1 cells): 14.2; potency for tumor cell killing in BTK^C481S expressing cells versus wild-type BTK or control vector (TMD-8 ABC DLBCL cells): decreased the potency |
| C=CC(=O)N1CCC[C@@H](n2nc(-c3ccc(Oc4ccccc4)cc3)c3c(N)ncnc32)C1 [Ibrutinib] | – | – | – | – | – | – | 60.5% | 80.6% | – | – | – |
